Data from patent US8575376B2, “Steroide anionic compounds, method of their production, usage and pharmaceutical preparation involving them” (Ustav Organicke Chemie A Biochemie Akademie Ved Ceske …, priority 2009, dated 2013).
Where two headings read alike, the source gives them in different places.

What was measured:
rats [1] = assay: Prepulse inhibition in MK-801 animal model of schizophrenia; type: in vivo, rat
Method: The effect of i.p. administration of the compound from example 9 at doses of 0.1 and 1 mg/kg on sensorimotor gating in prepulse inhibition (PPI) test was evaluated. All testing occurred within the startle chamber (SR-LAB, San Diego Instruments, USA), which consisted of a clear Plexiglas cylinder (8.2 cm diameter, 10×20 cm) that rested on a piezoelectric accelerometer inside a ventilated and illuminated chamber. The piezoelectric accelerometer detected and transduced motion within the cylinder. A high frequency loudspeaker inside the chamber (24 cm above the animal) produced both a background noise of 62 dB and the acoustic stimuli. All rats were initially tested in a short session (5 min acclimatization period plus 5 single stimuli; 120 dB strong) 2 days before the experiment.
The background noise (62 dB) was presented alone for 5 min (acclimatization period) and then continued throughout the session. […] The PPI was measured as a difference between the average responses to the single pulse and prepulse-pulse trials, and was expressed as a percent of the PPI [100−(mean response for prepulse-pulse trials/startle response for single pulse trials)×100]. […]

[2] = target: T1, recombinant NR1/NR2B receptors (Rattus norvegicus, UniProt P35439+Q00960); assay: Patch-clamp, inhibition of glutamate responses of recombinant NMDA receptors in transfected HEK293 cells; type: cell-based
T1 construct: expressed in transfected cells; host or cells: HEK293 cells (ATCC CRL1573)
T1 sequence (Q00960 27-1482, other chains not shown): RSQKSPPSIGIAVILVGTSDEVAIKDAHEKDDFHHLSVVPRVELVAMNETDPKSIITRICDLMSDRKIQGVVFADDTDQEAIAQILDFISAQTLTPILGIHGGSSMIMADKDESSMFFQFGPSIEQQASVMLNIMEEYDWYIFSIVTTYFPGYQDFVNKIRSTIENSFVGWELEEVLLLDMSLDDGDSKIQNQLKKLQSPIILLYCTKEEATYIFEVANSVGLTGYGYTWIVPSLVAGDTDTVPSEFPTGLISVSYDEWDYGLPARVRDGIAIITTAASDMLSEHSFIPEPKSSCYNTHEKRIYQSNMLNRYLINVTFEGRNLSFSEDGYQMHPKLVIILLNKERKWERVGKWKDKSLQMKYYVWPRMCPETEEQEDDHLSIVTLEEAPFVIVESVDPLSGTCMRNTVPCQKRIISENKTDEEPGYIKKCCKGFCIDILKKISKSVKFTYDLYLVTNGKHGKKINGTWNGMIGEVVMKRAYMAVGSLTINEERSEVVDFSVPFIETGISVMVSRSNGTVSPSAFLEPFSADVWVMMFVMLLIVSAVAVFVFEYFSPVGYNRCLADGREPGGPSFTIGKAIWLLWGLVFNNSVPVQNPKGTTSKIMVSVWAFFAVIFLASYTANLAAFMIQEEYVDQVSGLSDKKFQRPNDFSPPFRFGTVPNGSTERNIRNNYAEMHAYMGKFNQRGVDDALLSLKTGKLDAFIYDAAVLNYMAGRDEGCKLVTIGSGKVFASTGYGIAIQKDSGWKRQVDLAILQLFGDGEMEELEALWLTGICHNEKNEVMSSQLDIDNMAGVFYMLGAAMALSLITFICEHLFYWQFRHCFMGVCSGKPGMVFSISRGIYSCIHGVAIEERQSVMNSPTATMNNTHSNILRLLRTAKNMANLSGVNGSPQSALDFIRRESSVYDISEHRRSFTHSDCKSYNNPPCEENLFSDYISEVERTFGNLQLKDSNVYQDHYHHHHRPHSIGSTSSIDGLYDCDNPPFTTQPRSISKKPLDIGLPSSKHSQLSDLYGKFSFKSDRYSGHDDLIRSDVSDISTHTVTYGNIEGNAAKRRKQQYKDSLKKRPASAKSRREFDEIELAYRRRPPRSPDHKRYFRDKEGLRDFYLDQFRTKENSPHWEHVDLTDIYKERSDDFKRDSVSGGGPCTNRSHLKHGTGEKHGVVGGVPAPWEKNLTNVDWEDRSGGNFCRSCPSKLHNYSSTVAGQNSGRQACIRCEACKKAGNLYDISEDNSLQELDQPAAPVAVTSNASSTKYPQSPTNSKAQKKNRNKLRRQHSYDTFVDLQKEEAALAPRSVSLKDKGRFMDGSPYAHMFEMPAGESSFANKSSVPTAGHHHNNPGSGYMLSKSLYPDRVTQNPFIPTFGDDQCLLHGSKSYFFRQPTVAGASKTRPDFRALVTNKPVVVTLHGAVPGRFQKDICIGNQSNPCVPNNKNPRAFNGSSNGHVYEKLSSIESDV

rats [3] = assay: Histochemical analysis (FluoroJadeB) after bilateral NMDA-induced hippocampal lesion; type: in vivo, rat; conditions: 1 mg/kg i.p.
Method: Animals were divided into four groups consisting of two series. First group of animals received an application of NMDA (intrahipocampally, i.h.) and compound from Example 9 (1 mg/kg, i.p.). Second group received NMDA i.h. and cyclodextrine i.p., third group obtained saline i.h. and cyclodextrin i.p. Forth group was applied with sterile saline i.h. and compound from Example 9 at a dose 1 mg/kg, i.p. Six animals from each group was sacrificed and perfused at intervals of 1-4 days after experimental manipulation.
Animals were deeply anesthetized by isoflurane (3.5%, driven by air) and fixed in the stereotaxic apparatus. Small drills were made in the skull and subsequently microinjection of NMDA (1 μl, […] NMDA in saline; pH adjusted to 7.2 by calcium dihydrogenphosphate) into both hippocampi was pursued. Coordinates of application (AP=4, L=2.5, DV=4) were localized with stereotaxic atlas (Paxinos and Watson, 2005) and verified in histological controls. Rats were again placed in soft recovery boxes after surgery and carefully monitored after surgery.
Application of compound from Example 9 was done according to experimental scheme either 30 min prior to and after NMDA application (in first series of experiments) or 30 min after lesion in the second series. Animals were perfused on days 1-4 after lesion, their brains were fixed with paraformaldehyde and sacharose solution. The brains were subsequently frozen to −70° C., and thin brain slices were prepared on cryomicrotome, stained and analyzed under light microscope.

[4] = Pharmacokinetics in plasma and brain after i.p. injection; type: in vivo, rat
Method: In the experiment 40 adult Long-Evans male rats from breeding colony of Institute of Physiology AS CR v.v.i., Prague were used. Rats were treated i.p. with a dose 1 mg/kg of compound from example 9 dissolved in 72 mM of hydroxypropyl-β-cyclodextrine saline solution. Brain and plasma was taken 5 min, 15 min, 30 min, 45 min, 60 min, 90 min, 120 min, 180 min, 24 hours and 48 hours after drug administration. Each brain and blood samples were taken from separate rat. Samples were collected in 4 rats for each time interval. Samples were immediately stored in a −80° C. freezer.
The concentrations of compound from example 9 in rat brain and plasma samples were measured by high performance liquid chromatography (HPLC) coupled with mass spectrometry (Agilent 6320 Ion Trap). Deuteried internal standard (3-d labeled compound from example 9) has been used for ensuring high accuracy of measurement.

rats [5] = assay: Spontaneous locomotor activity in the open-field test; type: in vivo, rat; conditions: 1 and 10 mg/kg s.c., 30 min before, 30 min session
Method: Animals were tracked with Ethovision Pro system (Noldus, Netherlands) and total path traveled during this session was evaluated. The compound from Example 9 was applied subcutaneously (dissolved in cyclodextrin) 30 min prior to behavioral observations at doses 1 mg/kg a 10 mg/kg; control animals were injected with saline.

rats [6] = assay: Elevated plus maze (anxiety); type: in vivo, rat
Method: The effect of i.p. administration of compound from example 9 in doses of 0.001, 0.01, and 10 mg/kg on behaviour in elevated plus maze was evaluated. The number of entrances into open arms and the total time spent in open arms were assessed.
The apparatus consisted of two opposite open arms (45 cm×10 cm) crossed at right angles with two opposite arms of the same size enclosed by walls 40 cm high, except for the central part where the arms crossed. The whole apparatus was elevated 50 cm above the floor.

[7] = rat, 1 mg/kg i.p., mean of 4 rats

## CC(=O)[C@H]1CC[C@H]2[C@@H]3CC[C@@H]4C[C@H](OC(=O)[C@@H](N)CCC(=O)O)CC[C@]4(C)[C@H]3CC[C@]12C [Example 9, 20-Oxo-5β-pregnan-3α-yl L-glutamyl 1-ester]
Rats [1]; Example 9 0.1 or 1 mg/kg i.p. co-administered with MK-801 0.1 mg/kg
  prepulse inhibition deficit induced by MK-801: blocked the exacerbating effect of MK-801
Rats [1]; Example 9 alone, 0.1 and 1 mg/kg i.p.
  prepulse inhibition: had no influence on prepulse inhibition
[2]; calculated from relative inhibition with Hill's coefficient 1.2
  IC50: 73 µM
[2]; responses to 1 mM glutamate, -60 mV, HEK293 NR1-1a/NR2B, steroid 50, 100 or 200 μM
  Relative inhibition effect (%): 77.1 ± 5.2%
Rats [3]
  NMDA-induced damage in caudatoputamen and thalamic nuclei (histology): Alleviation, but not elimination of damage
  NMDA-induced damage in neocortex (histology): pronounced cessation of damage in the whole neocortex
Rats [3]; dentate gyrus, Cornu ammonis fields, subiculum
  NMDA-induced damage to the hippocampus (histology): significant decrease of NMDA-induced damage to the hippocampus
[4]; male, Long-Evans, brain, ip, rat, 1 mg/kg i.p., read-out: Tmax in brain (converted)
  Tmax: 1 h
[4]; male, Long-Evans, plasma, ip, rat, 1 mg/kg i.p.
  Cmax: 675 ng/mL
[4]; male, Long-Evans, plasma, ip, rat, 1 mg/kg i.p., read-out: Tmax in plasma (converted)
  Tmax: 0.25 h
[4]; male, Long-Evans, rat, intraperitoneal, 1 mg/kg, plasma, estimated
  half-life: 4.45 h
[4]; male, Long-Evans, rat, ip, 1 mg/kg, plasma, estimated, read-out: AUC0_inf i.p. (converted)
  AUC: 1260 ng·h/mL
[4]; plasma, estimated
  Ke: 0.002593
[4]; rat, 1 mg/kg i.p.
  accumulation in brain tissue: not cumulated in brain tissue
  blood brain barrier penetration: penetrates blood brain barrier
  cmax in brain: 508 ng/whole brain
[4]; [7]
  brain level after 2 hours: 222 ng/whole brain
  brain level after 3 hours: 128 ng/whole brain
  brain level after 24 hours: 14 ng/whole brain
  brain level after 48 hours: 0.6 ng/whole brain
Rats [5]
  total distance traveled in the open-field session (spontaneous locomotor activity): did not significantly alter the spontaneous locomotor activity
Rats [6]; 0.001, 0.01 and 10 mg/kg i.p.
  anxiolytic effect in elevated plus maze: pronounced dose-dependent anxiolytic effect
Rats [6]; 10 mg/kg i.p., p<0.05 vs control
  number of entries into open arms: significant increase of number of entries into open arms
